Reference: patent US20050106242A1, “Melt blend dispersions” (priority 2003, published 2005)
In brackets after ≈: the same amount, converted by molar mass.

How the values were obtained:
[1] = Particle size of progesterone precipitation in AIF (Horiba LA-910 laser scattering); format: physicochemical; conditions: ~4 mg progesterone in 15 ml AIF, shaken at 37° C.; FIG. 1 and FIG. 2
Method: Samples as indicated below containing ˜4 mg of progesterone were added to 15 ml AIF and then were shaken in a water bath at 37° C. The particle size of the progesterone precipitation was measured with Horiba LA-910 laser scattering particle size analyzer.

[2] = Water solubility of progesterone in artificial intestinal fluid; format: physicochemical; conditions: fassgf or other biorelevant; at 37° C. in artificial intestinal fluid (AIF)

CC(=O)[C@H]1CC[C@H]2[C@@H]3CCC4=CC(=O)CC[C@]4(C)[C@H]3CC[C@]12C [Progesterone, pregn-4-ene-3,20-dione]
mean particle size [1]: 72.4 μm
solubility [2]: 12 µg/mL (≈ 38.2 µM)
